From US12162858B2, “Quinoline derivatives as inhibitors of AXL/MER RTK and CSF1R” (QURIENT CO., LTD., priority 2018, dated 2024)
pIC50: −log10 of the molar value.

What follows are compounds tested against CSF1R (Homo sapiens, UniProt P07333) (assay: Cellular CSF1R inhibition ELISA (p-CSF1R, M-CSF-induced) using THP-1 cells).
Format: cell-based
Set-up: THP-1 cells act as a model for human monocytes; endogenous in cells; host or cells: THP-1
Method in brief: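 THP-1 cells (2×10^5/well, RPMI/10% FBS) were treated with compound, 10 doses in 3-fold steps, for 24 h at 37 °C in 0.2% DMSO final. They were then stimulated 5 min with human M-CSF (10 ng/ml final) and lysed. p-CSF1R was read by sandwich ELISA (HRP/TMB), with a sigmoidal dose-response fit.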

Chain of CSF1R (P07333 20-972): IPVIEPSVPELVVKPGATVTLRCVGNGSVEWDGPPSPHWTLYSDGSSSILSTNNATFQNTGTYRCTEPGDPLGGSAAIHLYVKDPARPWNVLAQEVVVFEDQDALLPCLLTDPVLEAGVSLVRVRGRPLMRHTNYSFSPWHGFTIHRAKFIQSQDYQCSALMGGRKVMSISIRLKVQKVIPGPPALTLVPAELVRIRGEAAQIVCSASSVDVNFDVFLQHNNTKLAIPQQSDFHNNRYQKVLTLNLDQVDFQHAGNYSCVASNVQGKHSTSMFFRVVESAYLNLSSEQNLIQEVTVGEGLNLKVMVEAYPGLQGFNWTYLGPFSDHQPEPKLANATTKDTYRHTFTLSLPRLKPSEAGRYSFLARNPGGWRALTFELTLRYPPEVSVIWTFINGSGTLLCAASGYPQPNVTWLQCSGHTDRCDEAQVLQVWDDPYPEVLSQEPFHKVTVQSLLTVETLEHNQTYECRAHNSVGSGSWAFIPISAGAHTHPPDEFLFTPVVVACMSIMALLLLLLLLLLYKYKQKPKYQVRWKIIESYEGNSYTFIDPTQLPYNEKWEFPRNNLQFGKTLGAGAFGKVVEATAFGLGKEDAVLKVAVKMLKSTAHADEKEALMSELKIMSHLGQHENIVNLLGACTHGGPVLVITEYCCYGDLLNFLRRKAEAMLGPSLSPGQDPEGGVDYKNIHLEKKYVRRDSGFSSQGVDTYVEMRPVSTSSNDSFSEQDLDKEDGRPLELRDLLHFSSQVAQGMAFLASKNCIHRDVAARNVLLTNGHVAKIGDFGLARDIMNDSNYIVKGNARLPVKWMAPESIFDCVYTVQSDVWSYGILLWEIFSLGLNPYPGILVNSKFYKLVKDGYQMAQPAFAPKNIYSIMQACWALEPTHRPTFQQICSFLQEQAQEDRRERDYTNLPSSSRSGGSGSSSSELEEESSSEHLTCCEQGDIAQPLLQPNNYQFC

`COc1cc2nccc(Oc3ccc(NC(=O)c4nn(CC(C)O)cc4OCC(F)(F)F)c(F)c3)c2cc1OC` (centres unmarked) [Compound 76] and `COCCn1cc(OCC(F)(F)F)c(C(=O)Nc2ccc(Oc3ccnc4cc(OC)c(OC)cc34)cc2F)n1` [Compound 49] cannot be ordered by pIC50: at most 6.00 for the first, at most 6.00 for the second.

First: CCCn1cc(OCCN(C)C)c(C(=O)Nc2ccc(Oc3ccnc4cc(OC)c(OC)cc34)cn2)n1 [Compound 177]
Second: CCCn1cc(OCCC(F)(F)F)c(C(=O)Nc2ccc(Oc3ccnc4cc(OC)c(OC)cc34)cn2)n1 [Compound 31]
The pIC50 of the first is lower: at most 6.00 for the first, over 6.30 for the second. The second is the more potent here.

First: COc1cc2nccc(Oc3ccc(NC(=O)c4nn(CCO)cc4OCC(F)(F)F)cc3)c2cc1OC [Compound 59]
Second: COCCn1cc(OCC(F)(F)F)c(C(=O)Nc2ccc(Oc3ccnc4cc(OC)c(OC)cc34)cc2)n1 [Compound 61]
The pIC50 of the first is higher: over 6.30 for the first, at most 6.00 for the second. The first is the more potent here.

`COc1cc2nccc(Oc3ccc(NC(=O)c4nn(C[C@@H](C)O)cc4OCC(F)(F)F)nc3)c2cc1OC` [Compound 29] and `COc1cc2nccc(Oc3ccc(NC(=O)c4nn(CC(C)O)cc4OCC(F)(F)F)nc3)c2cc1OC` (centres unmarked) [Compound 17] cannot be ordered by pIC50: over 6.30 for the first, over 6.30 for the second.

`COc1cc2nccc(Oc3ccc(NC(=O)c4nn(CCC#N)cc4OCC(F)(F)F)nc3)c2cc1OC` [Compound 39] and `COc1cc2nccc(Oc3ccc(NC(=O)c4nn(CCO)cc4OCC(F)(F)F)nc3)c2cc1OC` [Compound 67] cannot be ordered by pIC50: over 6.30 for the first, over 6.30 for the second.

`COc1cc2nccc(Oc3ccc(NC(=O)c4nn(CC5CNC5)cc4OCC(F)(F)F)nc3)c2cc1OC` [Compound 73] and `COc1cc2nccc(Oc3ccc(NC(=O)c4nn(CC5CCCC5)cc4OCC(F)(F)F)nc3)c2cc1OC` [Compound 71] cannot be ordered by pIC50: over 6.30 for the first, over 6.30 for the second.

`COc1cc2nccc(Oc3ccc(NC(=O)c4nn(CC(C)=O)cc4OCC(F)(F)F)nc3)c2cc1OC` [Compound 19] and `COc1cc2nccc(Oc3ccc(NC(=O)c4nn(C)cc4OCC(F)(F)F)nc3)c2cc1OC` [Compound 33] cannot be ordered by pIC50: over 6.30 for the first, over 6.30 for the second.

`COc1cc2nccc(Oc3ccc(NC(=O)c4nn(CCNC5CC5)cc4OCC(F)(F)F)nc3)c2cc1OC` [Compound 168] and `COc1cc2nccc(Oc3ccc(NC(=O)c4nn(CCOC5CCC5)cc4OCC(F)(F)F)nc3)c2cc1OC` [Compound 65] cannot be ordered by pIC50: over 6.30 for the first, over 6.30 for the second.

First: COc1cc2nccc(Oc3ccc(NC(=O)c4nn(C5CCNC5)cc4OCC(F)(F)F)nc3)c2cc1OC (centres unmarked) [Compound 70]
Second: COc1cc2nccc(Oc3ccc(NC(=O)c4nn(C5CCOC5)cc4OCC(F)(F)F)nc3)c2cc1OC (centres unmarked) [Compound 13]
The pIC50 of the first is lower: 6.00 to 6.30 for the first, over 6.30 for the second.

`CCCn1cc(OCC(F)(F)F)c(C(=O)Nc2ccc(Oc3ccnc4cc(OC)c(OC)cc34)c(C)c2)n1` [Compound 26] and `COc1cc2nccc(Oc3ccc(NC(=O)c4nn(CCO)cc4OCC(F)(F)F)cc3C)c2cc1OC` [Compound 56] cannot be ordered by pIC50: over 6.30 for the first, over 6.30 for the second.

Going from `COc1cc2nccc(Oc3ccc(NC(=O)c4nn(CCC(F)(F)F)cc4OCC4CCC4)nc3)c2cc1OC` [Compound 166] to `COc1cc2nccc(Oc3ccc(NC(=O)c4nn(C5COC5)cc4OCC(F)(F)F)nc3)c2cc1OC` [Compound 66], the pIC50 rises from at most 6.00 to over 6.30. The second is the more potent here.

`COc1cc2nccc(Oc3ccc(NC(=O)c4nn(C5CC5)cc4OCC4CNC4)nn3)c2cc1OC` [Compound 172] and `COc1cc2nccc(Oc3ccc(NC(=O)c4nn(C5CC5)cc4OCCC(F)(F)F)nn3)c2cc1OC` [Compound 173] cannot be ordered by pIC50: at most 6.00 for the first, at most 6.00 for the second.

First: COc1cc2nccc(Oc3ccc(NC(=O)c4nn(C)cc4OCC(F)(F)F)cc3C)c2cc1OC [Compound 37]
Second: COc1cc2nccc(Oc3ccc(NC(=O)c4nn(C)cc4OCC(F)(F)F)cc3F)c2cc1OC [Compound 50]
The pIC50 of the first is higher: over 6.30 for the first, 6.00 to 6.30 for the second.

`CCCn1cc(OCC(F)(F)F)c(C(=O)Nc2ccc(Oc3ccnc4cc(OC)c(OC)cc34)cc2C)n1` [Compound 27] and `CCCn1cc(OC(C)C)c(C(=O)Nc2ccc(Oc3ccnc4cc(OC)c(OC(F)(F)F)cc34)c(F)c2)n1` [Compound 35] cannot be ordered by pIC50: at most 6.00 for the first, at most 6.00 for the second.

`COc1cc2nccc(Oc3ccc(NC(=O)c4nc(CCC(F)(F)F)oc4CCC4CCC4)nc3)c2cc1OC` [Compound 176] gave a pIC50 of at most 6.00.
